Results taken from BindingDB's records for doi:10.1016/j.bmcl.2005.11.092 (Astrazeneca R&D, 2006).

target: Metabotropic glutamate receptor 5 (Homo sapiens, UniProt P41594); assay: Inhibition of glutamate-induced calcium influx in human mGluR5d by FLIPR
Sequence (P41594 whole entry): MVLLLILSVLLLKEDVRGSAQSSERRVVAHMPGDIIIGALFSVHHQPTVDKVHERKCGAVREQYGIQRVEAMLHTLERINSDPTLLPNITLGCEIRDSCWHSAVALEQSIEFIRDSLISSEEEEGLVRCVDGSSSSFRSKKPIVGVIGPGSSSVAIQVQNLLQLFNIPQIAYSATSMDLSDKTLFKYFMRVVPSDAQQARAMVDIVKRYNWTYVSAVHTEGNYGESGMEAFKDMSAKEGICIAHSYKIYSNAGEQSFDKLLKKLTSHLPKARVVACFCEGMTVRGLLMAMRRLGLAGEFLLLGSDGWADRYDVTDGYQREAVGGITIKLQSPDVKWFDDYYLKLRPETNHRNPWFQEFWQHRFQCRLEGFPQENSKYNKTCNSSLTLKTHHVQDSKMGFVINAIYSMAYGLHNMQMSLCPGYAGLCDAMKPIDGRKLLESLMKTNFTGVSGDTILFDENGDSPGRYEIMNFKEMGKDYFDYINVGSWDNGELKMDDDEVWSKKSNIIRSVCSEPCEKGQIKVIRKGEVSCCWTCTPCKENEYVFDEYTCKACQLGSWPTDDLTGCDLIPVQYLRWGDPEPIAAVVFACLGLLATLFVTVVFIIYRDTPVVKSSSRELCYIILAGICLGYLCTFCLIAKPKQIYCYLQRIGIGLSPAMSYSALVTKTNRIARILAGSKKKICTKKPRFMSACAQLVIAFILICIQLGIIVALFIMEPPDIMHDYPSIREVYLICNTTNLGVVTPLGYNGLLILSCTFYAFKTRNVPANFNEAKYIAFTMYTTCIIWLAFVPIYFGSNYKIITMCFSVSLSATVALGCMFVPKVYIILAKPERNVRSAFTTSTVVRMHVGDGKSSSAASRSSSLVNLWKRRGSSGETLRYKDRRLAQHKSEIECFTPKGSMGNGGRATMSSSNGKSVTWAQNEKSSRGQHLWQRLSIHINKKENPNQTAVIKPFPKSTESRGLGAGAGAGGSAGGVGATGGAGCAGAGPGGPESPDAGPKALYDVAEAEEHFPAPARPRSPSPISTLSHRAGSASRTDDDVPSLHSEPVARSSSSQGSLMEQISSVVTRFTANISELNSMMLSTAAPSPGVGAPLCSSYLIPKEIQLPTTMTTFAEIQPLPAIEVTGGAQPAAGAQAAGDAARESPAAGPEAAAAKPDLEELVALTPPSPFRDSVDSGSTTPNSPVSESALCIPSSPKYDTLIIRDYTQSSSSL

`Cn1cc(O)nc1NC(=O)Nc1cccs1` [1-(1-methyl-4-oxoimidazolidin-2-ylidene)-3-(thiophen-2-yl)urea] and `Cn1cc(O)nc1NC(=O)Nc1ccccc1` [(E)-1-(1-methyl-4-oxoimidazolidin-2-ylidene)-3-phenylurea] are the same in IC50: 4.9 µM for the first, 4.9 µM for the second.

`Cc1ccccc1NC(=O)Nc1nc(O)c2n1CCC2` [1-(1-oxo-hexahydropyrrolo[1,2-e]imidazol-3-ylidene)-3-o-tolylurea] and `Cc1cccc(NC(=O)Nc2nc(O)c3n2CCC3)c1C` [1-(2,3-dimethylphenyl)-3-(1-oxo-hexahydropyrrolo[1,2-e]imidazol-3-ylidene)urea] cannot be ordered by IC50: greater than 10 µM for the first, greater than 10 µM for the second.

`Cc1ccc(C)c(NC(=O)Nc2nc(O)c3n2CCC3)c1` [1-(2,5-dimethylphenyl)-3-(1-oxo-hexahydropyrrolo[1,2-e]imidazol-3-ylidene)urea] and `Cc1ccc(NC(=O)Nc2nc(O)c3n2CCC3)cc1Cl` [1-(3-chloro-4-methylphenyl)-3-(1-oxo-hexahydropyrrolo[1,2-e]imidazol-3-ylidene)urea] cannot be ordered by IC50: greater than 10 µM for the first, greater than 10 µM for the second.

`Cn1cc(O)nc1NC(=O)Nc1cc(Cl)cc(Cl)c1` [1-(3,5-dichlorophenyl)-3-(1-methyl-4-oxoimidazolidin-2-ylidene)urea] and `COC(=O)c1cccc(NC(=O)Nc2nc(O)cn2C)c1` [methyl 3-(3-(1-methyl-4-oxoimidazolidin-2-ylidene)ureido)benzoate] cannot be ordered by IC50: greater than 10 µM for the first, greater than 10 µM for the second.

`O=C(Nc1ccc(Cl)cc1)Nc1nc(O)c2n1CCC2` [1-(4-chlorophenyl)-3-(1-oxo-hexahydropyrrolo[1,2-e]imidazol-3-ylidene)urea] and `CCCCCCNC(=O)Nc1nc(O)cn1C` [1-hexyl-3-(1-methyl-4-oxoimidazolidin-2-ylidene)urea] cannot be ordered by IC50: greater than 10 µM for the first, greater than 10 µM for the second.
